For one molecule, NF-κB activation results are on record in patent US20090326259A1, “NF-Kappabeta Activation Inhibitor” (Tokyo University of Marine Science and Technology, priority 2006, published 2009).

The subject of this test is NF-κB. In words: LPS-stimulated NF-κB activation in RAW264.7 murine macrophage (gel shift with biotin-labelled NF-κB consensus sequence). It is filed as cell-based. Particulars: RAW264.7, 1 μM compound 22 h, then 1 μg/ml LPS 2 h; FIG. 2. How it is done:
[Measurement of LPS-stimulated NF-κB activation in RAW264.7 murine macrophage strain] The murine macrophage RAW264.7 is preserved in DMEM containing 10% fetal bovine serum. After treatment in DMEM with 1 μM cycloartenyl ferulate (CAF) for 22 h, it is further stimulated for 2 h in 1 μg/ml lipopolysaccharide (LPS).
The nucleoprotein of RAW264.7 cell is extracted with Transfactor Extraction kit (BD Biosciences, USA), and then is bound with the following NF-κB consensus sequence of biotin-labeling reaction for 60 min in reaction solution consisting 100 mM HEPES (pH 7.6), 5 mM EDTA, 50 mM ammonium sulfate, 5 mM DTT, 150 mM KCl, 1% (v/v) Tween20 and 0.0001% poly (dI-dC) (Amersham Biosciences, USA).
Except these experimental groups, control group reacting with 90-fold unlabeled consensus sequence, along with supershift group using anti-p50 polyclonal antibody (Abcam, USA) and anti-p65 polyclonal antibody (Santa Cruz Biotechnology, INC., USA) are established to make comparison. […]
The peroxidase activity is detected with Immobilon Western Chemiluminescent HRP substrate (Millipore, USA) and the luminous intensity is quantified by Image J (National Institutes of Health, USA) as shown in FIG. 2. […]
Background: Mobility shift assays separate free from complexed probe on a gel.

In the case of `COc1cc(/C=C/C(=O)O)ccc1O` [ferulic acid], the NF-κB activation result was “barely inhibits”.
